Test results: US6939963B2, “Method for the preparation of selectively-substituted corroles and new substituted corroles” (Technion Research and Development Foundation Ltd., priority 2001, dated 2005)

What was measured:
[1] = Solubility in water of compound 3 and its metal complexes; type: physicochemical
Text: (§1) The most variable compounds of the invention are 2 and 3, because of the easy substitution of the chloride in the —SO2Cl functions of 2 and the large variety of metal ions that can be inserted into either 2 or 3. In the present example, metallation of compound 3 is described. Generally, the same methods that were developed for corrole 1 worked for 3 as well: GaCl3/pyridine for obtaining compound 15, the gallium(III) complex of 3; Mn(OAc)2/DMF for obtaining compound 16, the manganese(III) complex of 3; Co(OAc)2/PPh3/EtOH for obtaining compound 17, the (triphenylphosphine)cobalt(III) complex of 3; SnCl2.2H2O/DMF for obtaining compound 18, the (chloro)tin(IV) complex of 3; and CrCl2/pyridine for obtaining compound 19, the (bis-pyridine)chromium(III) complex of 3.

[2] = Aggregation in solution judged from linear plots of UV-vis absorbance (ε determination); type: physicochemical; details: low concentrations relevant for UV-vis measurements, 10^−4-10^−6 M
Text: as §1

## O=S(=O)(O)C1=Cc2nc1c(-c1c(F)c(F)c(F)c(F)c1F)c1ccc([nH]1)c(-c1c(F)c(F)c(F)c(F)c1F)c1ccc([nH]1)c(-c1c(F)c(F)c(F)c(F)c1F)c1cc(S(=O)(=O)O)c2[nH]1 [Compound 3, 5,10,15-Tris(pentafluorophenyl)-2,17-bis(sulfonic acid)-corrole]
[1]
  solubility in water: soluble in water
[2]
  aggregation (linear plots obtained for elucidating the ε values): absence of aggregation
